Our source for the solubility, GH and Solubility in water values is patent publication US20020187938A1, “Ghrelin antagonists” (priority 2000, published 2002).

Values after ≈ are worked out from the molar mass of the structure shown. Values joined by “and” are separate entries in the source; they are usually repeats but may differ in a detail not shown here. Equal values may be shown once. Where a SMILES comes first, the peptide text is derived from it. Where no end group is shown, it is not given here. The star is where a group is joined. Octanoyl = CCCCCCCC(=O)*

One data set is described as follows: Solubility in water. Type of data set: physicochemical. The settings on record: for solubility: water. As to the method:
Solubility in water: 0.7 mg/ml

The next data set has as its system circulating GH. Kind of data set: Circulating GH in 10-day old rats after subcutaneous injection. Type of data set: in vivo. The conditions noted are these: 300 mg/kg, circulating GH at 15 minutes. The procedure:
The peptide was injected subcutaneously in 10-day old rats at a dose of 300 mg/kg along with a solvent control and Ghrelin, and the circulating GH determined at 15 minutes, as described in R. Deghenghi et al., Life Sciences 54, 1321-1328 (1994). The results were as follows: The peptide was administered to rats as described above in Example 1. […]

For `CCCCCCCC(=O)OC[C@H](NC(=O)[C@H](CO)NC(=O)CN)C(=O)N[C@@H](Cc1ccccc1)C(=O)N[C@@H](CC(C)C)C(=O)N[C@@H](CO)C(=O)N1CCC[C@H]1C(=O)N[C@@H](CCC(=O)O)C(=O)O` [Peptide of Example 1, Gly-Ser-Ser(Octanoyl)-Phe-Leu-Ser-Pro-Glu], in “Solubility in water”, the concentration in solution (solubility) was 700 µg/mL (≈ 738 µM).

Regarding `CCCCCCCC(=O)OC[C@H](NC(=O)[C@H](CO)NC(=O)CN)C(=O)N[C@@H](Cc1ccccc1)C(=O)N[C@@H](CC(C)C)C(=O)N[C@@H](CO)C(=O)N1CCC[C@H]1C(=O)N[C@@H](CCC(=O)O)C(=O)N[C@@H](C)C(=O)N[C@@H](CCCCN)C(=O)N[C@@H](CC(C)C)C(=O)N[C@@H](CCC(N)=O)C(=O)N1CCC[C@H]1C(=O)N[C@@H](CCCNC(=N)N)C(=O)O` [Peptide of Example 2, Gly-Ser-Ser(Octanoyl)-Phe-Leu-Ser-Pro-Glu-Ala-Lys-Leu-Gln-Pro-Arg] (H-GSS(Octanoyl)FLSPEAKLQPR-OH), the solubility in “Solubility in water” is 900 µg/mL (≈ 548 µM). The same compound came in with a GH in the data set on circulating GH of 7.00 ± 3.5 ng/mL.

As for `CCCCCCCC(=O)OC[C@H](NC(=O)[C@H](CO)NC(=O)CN)C(=O)N[C@@H](Cc1ccccc1)C(=O)O` [Peptide of Example 3, Gly-Ser-Ser(Octanoyl)-Phe] (H-GSS(Octanoyl)F-OH; N-terminus and C-terminus assumed), in the data set “Solubility in water”, the Solubility in water result was “insoluble”.

In the case of “Ghrelin (human): peptide of 27 or 28 amino acids with an octanoyl ester on a serine residue; potent releaser of growth hormone (GSS(Octanoyl)FLSPEHQRVQQRKESKKPPAKLQPR; also: octanoyl ester on a serine residue; UniProt Q9UBU3 24-51, looked up)”, the GH in the data set on circulating GH is 139.80 ± 15.37 ng/mL and 140 ± 15 ng/mL and 139.8 ± 15.4 ng/mL.

One may read the solubility as the dissolved amount per volume that the medium holds. Low values mean little dissolved substance, high ones much dissolved substance.
